Patent US10034886B2, “GLP-1 receptor modulators” (Celgene International II SÀRL, priority 2014, dated 2018)
Read-outs that look alike come from different tables or passages of the source.

Target: T1, GLP-1R (Homo sapiens, UniProt P43220)
T1 construct: host or cells: GLP-1R CRE-bla CHO-K1 cells
Assay: EC20 GLP-1(9-36) PAM cAMP assay: dose response of compound in the presence of fixed concentration of GLP-1(9-36)
Format: cell-based
Conditions: GLP-1R CRE-bla CHO-K1 cells, read-out: EC20 GLP-1(9-36) PAM EC50
Method: EC20 GLP-1(9-36) PAM cAMP Assay: Dose Response of Compound in the Presence of Fixed Concentration of GLP-1 (9-36).
GLP-1R CRE-bla CHO-K1 cells cultured in growth medium (DMEM-High glucose, 10% dialyzed FBS, 0.1 mM NEAA, 25 mM Hepes, 100 U/mL penicillin/100 μg/mL streptomycin, 5 μg/mL Blasticidin, 600 μg/mL Hygromycin) were trypsinized and plated in suspension into 384 well white flat bottom plates at 5000 cells/well in 12 μL assay buffer (Hanks Balanced Salt solution, 10 mM hepes, 0.1% BSA, pH 7.4). A 5× compound dose response curve (12-point) was generated in assay buffer containing 1.5 mM IBMX, 4% DMSO. GLP-1(9-36) was diluted to 4.2 μM in assay buffer containing 1.5 mM IMBX and 4% DMSO. The 5× compound dose response was added (3 μL), followed by 0.5 μL of GLP-1(9-36) and cells were incubated for 30 min at 37° C. Direct detection of cAMP was carried out using DiscoveRx HitHunter cAMP kit according to manufacturer's instructions and luminescence was read using a SpectraMax M5 plate reader. Luminescence was converted to total cAMP using a cAMP standard curve and data was analyzed by non-linear regression to determine the EC50 and Emax.
GLP-1(7-36): […]-NH2 (SEQ ID NO: 2). GLP-1(9-36): […]-NH2 (SEQ ID NO: 3). GLP-1(7-36) was purchased from GenScript. GLP-1(9-36) was purchased from Biopeptide Co., Inc.
The EC20GLP-1(9-36) PAM Activity range is denoted as follows: + denotes activity <0.8 μM, ++ denotes activity between 0.8 and 2.5 μM, +++ denotes activity between 2.5 and 5 μM, and ++++ denotes activity 5 to 10 μM.

[1] = dose response of compound in presence of fixed concentration of GLP-1(9-36)
[2] = compound dose response with fixed concentration of GLP-1(9-36)

T1 sequence (P43220 24-463): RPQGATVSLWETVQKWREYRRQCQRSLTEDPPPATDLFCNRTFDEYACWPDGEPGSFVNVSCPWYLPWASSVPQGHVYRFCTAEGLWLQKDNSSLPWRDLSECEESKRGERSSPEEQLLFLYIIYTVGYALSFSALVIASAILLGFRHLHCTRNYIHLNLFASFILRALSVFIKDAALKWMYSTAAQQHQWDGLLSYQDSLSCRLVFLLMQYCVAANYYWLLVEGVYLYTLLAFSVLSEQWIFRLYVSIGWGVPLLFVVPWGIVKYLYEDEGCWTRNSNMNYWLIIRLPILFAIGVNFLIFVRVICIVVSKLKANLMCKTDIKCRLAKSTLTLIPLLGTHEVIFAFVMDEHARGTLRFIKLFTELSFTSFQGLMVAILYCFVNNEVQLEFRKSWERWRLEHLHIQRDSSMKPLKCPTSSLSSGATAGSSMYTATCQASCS
T1 sequence (P01275 100-127 partner limits assumed): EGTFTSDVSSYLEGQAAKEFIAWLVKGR

Row | Structure (SMILES) | EC50 [1] [nM] | EC50 [2] [nM]
1 | CCCCCC(=O)c1ccc(-c2cnc(-c3ccc(C[C@H](NC(=O)c4ccc(C(C)(C)C)s4)C(=O)N[C@H](C)C(=O)O)cc3)nc2)cc1 [Compound 738] | < 800 | –
2 | CCC[C@H]1CC[C@H](C2CCN(c3cnc(-c4ccc(C[C@H](NC(=O)c5ccc(C(C)(C)C)cc5)C(=O)N5CC(C(=O)O)C5)cc4)nc3)CC2)CC1 [Compound 1414] | – | < 800
3 | CCCCCCCOc1ccc(-c2cnc(-c3ccc(C[C@H](NC(=O)c4ccc(C(C)(C)C)s4)C(=O)N[C@@H](CN)C(=O)O)cc3)nc2)cc1 [Compound 394] | 2500 to 5000 | –
4 | CC(C)(C)CCCOc1ccc(-c2cnc(-c3ccc(C[C@H](NC(=O)c4ccc(C(C)(C)C)s4)C(=O)N4CC(C(=O)O)C4)cc3)nc2)cc1 [Compound 944] | < 800 | –
5 | CCC[C@H]1CC[C@H](C2CCN(c3cnc(-c4ccc(CC(NC(=O)c5ccc(C(C)(C)C)s5)C(=O)NS(=O)(=O)C(C)(C)C)cc4)nc3)CC2)CC1 (stereo partly drawn) [Compound 1546] | – | < 800
6 | CCCCCCCOc1ccc(-c2cnc(-c3ccc(C[C@H](NC(=O)c4ccc(CC)s4)C(=O)N4CC(C(=O)O)C4)cc3)nc2)cc1 [Compound 1110] | 800 to 2500 | –
7 | CCCCCCCOc1ccc(-c2cnc(-c3ccc(C[C@H](NC(=O)c4ccc(Oc5ccccc5)cc4)C(=O)N[C@H](C)C(=O)O)cc3)nc2)cc1 [Compound 824] | < 800 | –
8 | Cc1ccc(/C=C/c2cnc(-c3ccc(C[C@H](NC(=O)c4ccc(C(C)(C)C)s4)C(=O)N[C@H](C)C(=O)O)cc3)nc2)cc1 [Compound 1052] | 2500 to 5000 | –
9 | CCC[C@H]1CC[C@H](C2CCN(c3cnc(-c4ccc(C[C@H](NC(=O)c5ccc(CC)cc5)C(=O)N5CC(C(=O)O)C5)cc4)nc3)CC2)CC1 [Compound 1529] | – | < 800
10 | CC[C@H]1CC[C@H](c2ccc(-c3cnc(-c4ccc(C[C@H](NC(=O)c5ccc(C(C)(C)C)nc5)C(=O)O)cc4)nc3)cc2)CC1 [Compound 1367] | – | < 800
11 | CCCCCCCOc1ccc(-c2cnc(-c3ccc(C[C@H](NC(=O)c4ccc(CC(C)C)cc4)C(=O)N4CC[C@H](C(=O)O)C4)cc3)nc2)cc1 [Compound 851] | 2500 to 5000 | –
12 | CCCCCCCOc1ccc(-c2cnc(-c3ccc(C[C@H](NC(=O)c4ccc(C5CC5)s4)C(=O)N[C@H](C)C(=O)O)cc3)nc2)cc1 [Compound 842] | 800 to 2500 | –
13 | CCCCCCCOc1ccc(-c2cnc(-c3ccc(C[C@H](NC(=O)c4ccc(C(C)(C)C)s4)C(=O)N4CC[C@H](O)C4)cc3)nc2)cc1 [Compound 977] | 5000 to 10000 | –
14 | CC(C)(C)c1ccc(C(=O)N[C@@H](Cc2ccc(-c3ncc(N4CCC(C(C)(C)C)CC4)cn3)cc2)C(=O)NCCC(=O)O)cc1 [Compound 674] | 5000 to 10000 | –
15 | CCCCCCCOc1ccc(-c2cnc(-c3ccc(CC(NC(=O)c4ccc(C(C)(C)C)s4)C(=O)N[C@@H](CC(C)C)C(=O)O)cc3)nc2)cc1 (stereo partly drawn) [Compound 408] | 800 to 2500 | –
16 | CC(C)(C)c1ccc(C(=O)N[C@@H](Cc2ccc(-c3ncc(-c4ccc(OCCC5CCCC5)cc4)cn3)cc2)C(=O)N2CC(C(=O)O)C2)s1 [Compound 920] | 800 to 2500 | –
17 | CCCCCCCOc1ccc(-c2cnc(-c3ccc(C[C@H](NC(=O)c4ccc(C(C)(C)C)cc4OC)C(=O)NC(C(=O)O)C(O)c4ccccc4)cc3)nc2)cc1 (stereo partly drawn) [Compound 952] | 2500 to 5000 | –
18 | CCCOc1ccc(-c2ccc(-c3cnc(-c4ccc(C[C@H](NC(=O)c5ccc(C(C)(C)C)s5)C(=O)N[C@H](C)C(=O)O)cc4)nc3)cc2)cc1 [Compound 1288] | – | 800 to 2500
19 | CCCCCCCOc1ccc(-c2cnc(-c3ccc(C[C@H](NC(=O)c4ccc(C(C)(C)C)cc4)C(=O)N[C@@H](CCCCN)C(=O)O)cc3)nc2)cc1 [Compound 492] | 5000 to 10000 | –
20 | CCCCCCCc1ccc(-c2cnc(-c3ccc(C[C@H](NC(=O)c4ccc(C(C)(C)C)cc4)C(=O)N[C@H](C)C(=O)O)cc3)nc2)cc1 [Compound 724] | 800 to 2500 | –
21 | CCCCCCCOc1ccc(-c2cnc(-c3ccc(C[C@H](NC(=O)c4ccc(C(C)(C)C)cc4)C(=O)NC4(CC(=O)O)CCOCC4)cc3)nc2)cc1 [Compound 553] | 800 to 2500 | –
22 | CCCCCCCOc1ccc(-c2cnc(-c3ccc(C[C@H](NC(=O)c4ccc(C(C)(C)C)s4)C(=O)NC(C)(C)C(=O)O)cc3)nc2)cc1 [Compound 406] | 800 to 2500 | –
23 | CCCCCCCOc1ccc(-c2cnc(-c3ccc(CC(NC(=O)c4ccc(C(C)(C)C)s4)C(=O)NCCCC(=O)O)cc3)nc2)cc1 (stereo not drawn) [Compound 429] | 2500 to 5000 | –

Row | Structure (SMILES) | EC50 [1] [nM] | EC50 [2] [nM]
24 | CCCCCCCOc1ccc(-c2cnc(-c3ccc(C[C@H](NC(=O)c4ccc(C(C)(C)C)s4)C(=O)NC(C(=O)O)C(O)c4ccc(OC)cc4)cc3)nc2)cc1 (stereo partly drawn) [Compound 644] | < 800 | –
25 | CCCCc1ccc(C2CCN(c3cnc(-c4ccc(C[C@H](NC(=O)c5ccc(C(C)(C)C)s5)C(=O)N5CC(C(=O)O)C5)cc4)nc3)C2)cc1 (stereo partly drawn) [Compound 1505] | – | 800 to 2500
26 | CC(C)c1ccc(-c2ccc(-c3cnc(-c4ccc(C[C@H](NC(=O)c5ccc(C(C)(C)C)s5)C(=O)N5CC(C(=O)O)C5)cc4)nc3)cc2)cc1 [Compound 1395] | – | < 800
27 | CCCCCCCOc1ccc(-c2cnc(-c3ccc(C[C@H](NC(=O)c4ccc(C(C)(C)C)s4)C(=O)N[C@@H](CC(=O)NCC(=O)O)C(=O)O)cc3)nc2)cc1 [Compound 515] | < 800 | –
28 | CCCCCCCOc1ccc(-c2cnc(-c3ccc(C[C@H](NC(=O)c4ccc(C(C)(C)C)s4)C(=O)N4C[C@@H](F)C[C@@H]4C(=O)O)cc3)nc2)cc1 [Compound 871] | 2500 to 5000 | –
29 | C[C@@H](NC(=O)[C@H](Cc1ccc(-c2ncc(-c3ccc(-c4cccc(C(F)(F)F)c4)cc3)cn2)cc1)NC(=O)c1ccc(C(C)(C)C)s1)C(=O)O [Compound 1319] | – | 5000 to 10000
30 | CC(C)(C)c1ccc(C(=O)N[C@@H](Cc2ccc(-c3ncc(-c4ccc(-c5ccccc5)c(F)c4)cn3)cc2)C(=O)O)s1 [Compound 1351] | – | 2500 to 5000
31 | CC(C)(C)c1ccc(C(=O)N[C@@H](Cc2ccc(-c3ncc(-c4ccc(C(C)(C)C)cc4)cn3)cc2)C(=O)NCCC(=O)O)cc1 [Compound 675] | 5000 to 10000 | –
32 | CCCCCCCOc1ccc(-c2cnc(-c3ccc(C[C@H](NC(=O)c4ccc(C(C)(C)C)s4)C(=O)NC(C(=O)O)c4ccc(OC)cc4)cc3)nc2)cc1 (stereo partly drawn) [Compound 619] | 800 to 2500 | –
33 | CC[C@H]1CC[C@H](c2ccc(-c3cnc(-c4ccc(C[C@H](NC(=O)c5ccc(C6(C#N)CC6)s5)C(=O)N5CC(C(=O)O)C5)cc4)nc3)cc2)CC1 [Compound 1340] | – | < 800
34 | CCCCCCCOc1ccc(-c2cnc(-c3ccc(C[C@H](NC(=O)c4ccc(CC(C)C)cc4)C(=O)N4CC(C(=O)O)C4)cc3)nc2)cc1 [Compound 1116] | 800 to 2500 | –
35 | CCCCCCCOc1ccc(-c2cnc(-c3ccc(C[C@H](NC(=O)c4ccc(C(C)(C)C)cc4)C(=O)N[C@@H](CC(=O)O)C(=O)N(C)C)cc3)nc2)cc1 [Compound 503] | 800 to 2500 | –
36 | CCCc1ccc(-c2ccc(-c3cnc(-c4ccc(C[C@H](NC(=O)c5ccc(C(C)(C)CC)cc5)C(=O)N5CC(C(=O)O)C5)cc4)nc3)c(F)c2)cc1 [Compound 1402] | – | < 800
37 | CC(C)(C)c1ccc(C(=O)N[C@@H](Cc2ccc(-c3ncc(-c4ccc(C5CCCC5)cc4)cn3)cc2)C(=O)N2CC[C@H](C(=O)O)C2)s1 [Compound 1084] | < 800 | –
38 | C[C@@H](NC(=O)[C@H](Cc1ccc(-c2ncc(-c3ccc(C4=CCC(C)(C)CC4)cc3)cn2)cc1)NC(=O)c1ccc(C(C)(C)C)s1)C(=O)O [Compound 1150] | < 800 | –
39 | CC[C@H]1CC[C@H](c2ccc(-c3cnc(-c4ccc(C[C@H](NC(=O)c5ccc(C(F)(F)F)s5)C(=O)O)cc4)nc3)cc2)CC1 [Compound 1369] | – | 800 to 2500
40 | CCCCCCCOc1ccc(-c2cnc(-c3ccc(C[C@H](NC(=O)c4ccc(C(C)(C)C)s4)C(=O)NC(C(=O)O)C(O)c4cccs4)cc3)nc2)cc1 (stereo partly drawn) [Compound 888] | 800 to 2500 | –
41 | CCCCCCCOc1ccc(-c2cnc(-c3ccc(C[C@H](NC(=O)c4ccc(C(C)(C)C)cc4)C(=O)N[C@@H](CC)C(=O)O)cc3)nc2)cc1 [Compound 499] | < 800 | –
42 | CCCCCCCOc1ccc(-c2cnc(-c3ccc(C[C@H](NC(=O)c4ccc(C(C)(C)C)s4)C(=O)N4CC(C(=O)O)C4)cc3)nc2)cc1 [Compound 635, (S)-1-(2-(5-(tert-butyl)thiophene-2-carboxamido)-3-(4-(5-(4-(heptyloxy)phenyl)pyrimidin-2-yl)phenyl)propanoyl)azetidine-3-carboxylic acid] | < 800 | –
43 | CCCCCCCOc1ccc(-c2cnc(-c3ccc(C[C@H](NC(=O)c4ccc(C(C)(C)C)cc4)C(=O)N[C@@H](CCN)C(=O)O)cc3)nc2)cc1 [Compound 475] | 800 to 2500 | –
44 | CC(C)CCCOc1ccc(-c2cnc(-c3ccc(C[C@H](NC(=O)c4ccc(CC(C)C)cc4)C(=O)N4CC(C(=O)O)C4)cc3)nc2)cc1 [Compound 1236] | – | 800 to 2500
45 | CC(C)CCCOc1ccc(-c2cnc(-c3ccc(C[C@H](NC(=O)c4ccc(CC(C)C)s4)C(=O)N4CC(C(=O)O)C4)cc3)nc2)cc1 [Compound 1234] | – | 2500 to 5000
